Experimental data as given in PubChem BioAssay (NCI).
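Exposure lasted 48 hours, with cells grown in 96-well plates and compounds tested at five concentrations. Abbreviation: GI50, concentration required for 50% inhibition of growth. Definition used: TGI = concentration required for complete inhibition of growth.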

What was measured:
Test in all cases: NCI-60 cell line screen, 48 h
SF-268 CNS = test system: SF-268 CNS
OVCAR-4 ovarian = test system: OVCAR-4 ovarian
HL-60(TB) leukemia = test system: HL-60(TB) leukemia
RXF 393 renal = test system: RXF 393 renal
TK-10 renal = test system: TK-10 renal
SK-MEL-2 melanoma = test system: SK-MEL-2 melanoma
HT29 colon = test system: HT29 colon
HCT-116 colon = test system: HCT-116 colon
ACHN renal = test system: ACHN renal
BT-549 breast = test system: BT-549 breast
NCI/ADR-RES ovarian = test system: NCI/ADR-RES ovarian
SK-OV-3 ovarian = test system: SK-OV-3 ovarian
UO-31 renal = test system: UO-31 renal
SF-539 CNS = test system: SF-539 CNS
NCI-H522 lung = test system: NCI-H522 lung
UACC-62 melanoma = test system: UACC-62 melanoma
HOP-92 NSCLC = test system: HOP-92 NSCLC
UACC-257 melanoma = test system: UACC-257 melanoma
MOLT-4 leukemia = test system: MOLT-4 leukemia
NCI-H23 lung = test system: NCI-H23 lung
IGROV1 ovarian = test system: IGROV1 ovarian
SK-MEL-5 melanoma = test system: SK-MEL-5 melanoma
A549 NSCLC = test system: A549 NSCLC
NCI-H460 lung = test system: NCI-H460 lung
SW-620 colon = test system: SW-620 colon
SK-MEL-28 melanoma = test system: SK-MEL-28 melanoma
LOX IMVI melanoma = test system: LOX IMVI melanoma
A498 renal = test system: A498 renal
T-47D breast = test system: T-47D breast
SN12C renal = test system: SN12C renal
M14 melanoma = test system: M14 melanoma
786-0 renal = test system: 786-0 renal
DU-145 prostate = test system: DU-145 prostate
CAKI-1 renal = test system: CAKI-1 renal
CCRF-CEM leukemia = test system: CCRF-CEM leukemia
MALME-3M melanoma = test system: MALME-3M melanoma
MDA-MB-468 breast = test system: MDA-MB-468 breast
SNB-19 CNS = test system: SNB-19 CNS
PC-3 prostate = test system: PC-3 prostate
NCI-H226 lung = test system: NCI-H226 lung
SR leukemia = test system: SR leukemia
RPMI-8226 leukemia = test system: RPMI-8226 leukemia
HCC-2998 colon = test system: HCC-2998 colon
OVCAR-8 ovarian = test system: OVCAR-8 ovarian
MDA-MB-231 breast = test system: MDA-MB-231 breast
SNB-75 CNS = test system: SNB-75 CNS
OVCAR-5 ovarian = test system: OVCAR-5 ovarian
SF-295 CNS = test system: SF-295 CNS
K-562 leukemia = test system: K-562 leukemia
HOP-62 NSCLC = test system: HOP-62 NSCLC
COLO 205 colon = test system: COLO 205 colon
OVCAR-3 ovarian = test system: OVCAR-3 ovarian
HS 578T breast = test system: HS 578T breast
KM12 colon = test system: KM12 colon
MDA-MB-435 = test system: MDA-MB-435
EKVX NSCLC = test system: EKVX NSCLC
U251 CNS = test system: U251 CNS
HCT-15 colon = test system: HCT-15 colon
MCF7 breast = test system: MCF7 breast

Q: Which results are given for CC(=O)c1ccc(Nc2nc(SCCC(C)C)nc(-c3ccc(F)cc3)c2C#N)cc1?
A: GI50 (SF-268 CNS): 4.85 µM; TGI (SF-268 CNS): 97.4 µM; GI50 (OVCAR-4 ovarian): 7.2 µM; TGI (OVCAR-4 ovarian): 93.3 µM; GI50 (HL-60(TB) leukemia): > 100 µM; TGI (HL-60(TB) leukemia): > 100 µM; GI50 (RXF 393 renal): 3.53 µM; TGI (RXF 393 renal): 16.8 µM; GI50 (TK-10 renal): 3.78 µM; TGI (TK-10 renal): 12.7 µM; GI50 (SK-MEL-2 melanoma): > 100 µM; TGI (SK-MEL-2 melanoma): > 100 µM; GI50 (HT29 colon): 5.53 µM; TGI (HT29 colon): > 100 µM; GI50 (HCT-116 colon): 3.51 µM; TGI (HCT-116 colon): 13.7 µM; GI50 (ACHN renal): 2.07 µM; TGI (ACHN renal): 4.56 µM; GI50 (BT-549 breast): 12.7 µM; TGI (BT-549 breast): > 100 µM; GI50 (NCI/ADR-RES ovarian): 4.31 µM; TGI (NCI/ADR-RES ovarian): 27.5 µM; GI50 (SK-OV-3 ovarian): 9.37 µM; TGI (SK-OV-3 ovarian): 26.2 µM; GI50 (UO-31 renal): 5.01 µM; TGI (UO-31 renal): 25.7 µM; GI50 (SF-539 CNS): 3.69 µM; TGI (SF-539 CNS): 16 µM; GI50 (NCI-H522 lung): 24 µM; TGI (NCI-H522 lung): > 100 µM; GI50 (UACC-62 melanoma): 30.2 µM; TGI (UACC-62 melanoma): > 100 µM; GI50 (HOP-92 NSCLC): 2.95 µM; TGI (HOP-92 NSCLC): 16.6 µM; GI50 (UACC-257 melanoma): > 100 µM; TGI (UACC-257 melanoma): > 100 µM; GI50 (MOLT-4 leukemia): > 100 µM; TGI (MOLT-4 leukemia): > 100 µM; GI50 (NCI-H23 lung): 5.86 µM; TGI (NCI-H23 lung): 39.6 µM; GI50 (IGROV1 ovarian): 10.6 µM; TGI (IGROV1 ovarian): 37.9 µM; GI50 (SK-MEL-5 melanoma): 13.8 µM; TGI (SK-MEL-5 melanoma): 53.4 µM; GI50 (A549 NSCLC): 3.85 µM; TGI (A549 NSCLC): > 100 µM; GI50 (NCI-H460 lung): 3.24 µM; TGI (NCI-H460 lung): 12.5 µM; GI50 (SW-620 colon): 16.7 µM; TGI (SW-620 colon): > 100 µM; GI50 (SK-MEL-28 melanoma): 29.6 µM; TGI (SK-MEL-28 melanoma): > 100 µM; GI50 (LOX IMVI melanoma): 4.41 µM; TGI (LOX IMVI melanoma): 25.7 µM; GI50 (A498 renal): 2.84 µM; TGI (A498 renal): 8.8 µM; GI50 (T-47D breast): 4.19 µM; TGI (T-47D breast): 74.5 µM; GI50 (SN12C renal): 24 µM; TGI (SN12C renal): > 100 µM; GI50 (M14 melanoma): 24.2 µM; TGI (M14 melanoma): > 100 µM; GI50 (786-0 renal): 3.09 µM; TGI (786-0 renal): 8.47 µM; GI50 (DU-145 prostate): 10.7 µM; TGI (DU-145 prostate): > 100 µM; GI50 (CAKI-1 renal): 3.75 µM; TGI (CAKI-1 renal): 23.5 µM; GI50 (CCRF-CEM leukemia): > 100 µM; TGI (CCRF-CEM leukemia): > 100 µM; GI50 (MALME-3M melanoma): 32.6 µM; TGI (MALME-3M melanoma): > 100 µM; GI50 (MDA-MB-468 breast): 10.2 µM; TGI (MDA-MB-468 breast): 50.3 µM; GI50 (SNB-19 CNS): 3.7 µM; TGI (SNB-19 CNS): 14.5 µM; GI50 (PC-3 prostate): 24.7 µM; TGI (PC-3 prostate): > 100 µM; GI50 (NCI-H226 lung): 3.82 µM; TGI (NCI-H226 lung): 22.4 µM; GI50 (SR leukemia): > 100 µM; TGI (SR leukemia): > 100 µM; GI50 (RPMI-8226 leukemia): > 100 µM; TGI (RPMI-8226 leukemia): > 100 µM; GI50 (HCC-2998 colon): 21 µM; TGI (HCC-2998 colon): > 100 µM; GI50 (OVCAR-8 ovarian): 5.77 µM; TGI (OVCAR-8 ovarian): 25.5 µM; GI50 (MDA-MB-231 breast): 2.94 µM; TGI (MDA-MB-231 breast): 10.2 µM; GI50 (SNB-75 CNS): 2.06 µM; TGI (SNB-75 CNS): 21.6 µM; GI50 (OVCAR-5 ovarian): > 100 µM; TGI (OVCAR-5 ovarian): > 100 µM; GI50 (SF-295 CNS): 2.18 µM; TGI (SF-295 CNS): 5.13 µM; GI50 (K-562 leukemia): 32.2 µM; TGI (K-562 leukemia): > 100 µM; GI50 (HOP-62 NSCLC): 3.99 µM; TGI (HOP-62 NSCLC): 16.3 µM; GI50 (COLO 205 colon): 7.42 µM; TGI (COLO 205 colon): > 100 µM; GI50 (OVCAR-3 ovarian): 13.3 µM; TGI (OVCAR-3 ovarian): 72.8 µM; GI50 (HS 578T breast): 3.06 µM; TGI (HS 578T breast): 10.1 µM; GI50 (KM12 colon): 45.5 µM; TGI (KM12 colon): > 100 µM; GI50 (MDA-MB-435): 12.9 µM; TGI (MDA-MB-435): > 100 µM; GI50 (EKVX NSCLC): 3.05 µM; TGI (EKVX NSCLC): 18.8 µM; GI50 (U251 CNS): 2.63 µM; TGI (U251 CNS): 7.87 µM; GI50 (HCT-15 colon): 9.87 µM; TGI (HCT-15 colon): > 100 µM; GI50 (MCF7 breast): 7.51 µM; TGI (MCF7 breast): > 100 µM
